Experimental data: patent US7550558B2, “Antimicrobial peptides and methods for identifying and using such peptides” (priority 2001, dated 2009)
No end group written: not given here.

What was measured:
[1] = literature; cited from earlier work

## HPLKQYWWRPSI [PW2, HPLKQYWWRPSI]
Micrococcus luteus
  concentrations with no antibacterial effect (MIC): > 200 µg/mL
Staphylococcus aureus
  concentrations with no antibacterial effect (MIC): > 200 µg/mL
Escherichia coli
  concentrations with no antibacterial effect (MIC): > 200 µg/mL
Candida albicans
  minimum inhibitory concentration (MIC): 12.5 to 25 µg/mL
Aspergillus nidulans
  minimum inhibitory concentration (MIC): 25 to 50 µg/mL

## ILPWLWPWWPWRR [indolicidin]
[1]
  cytotoxic property: cytotoxic
  hemolytic property: hemolytic

## VRRFPWWWPFLRR [tritrpticin]
[1]
  cytotoxic property: cytotoxic
  hemolytic property: hemolytic
